Legend:
[1] = tested on: oxaliplatin-treated Balb/C mice; details: oxaliplatin 6 mg/kg i.p. twice weekly for 4 weeks
[2] = Comparative pharmacokinetics versus reference compounds, rat
[3] = Comparative pharmacokinetics versus reference compounds, dog
[4] = Rat, 2 hours after intravenous administration
[5] = Rat, IV, dosing level 3 mg/kg (level not given for Reference 2)
[6] = Rat, PO, dosing level 3 mg/kg (level not given for Reference 2)
[7] = Dog, IV, dosing level 1 mg/kg (level not given for Reference 2)
[8] = Dog, PO, dosing level 2 mg/kg (level not given for Reference 2)

O=C1[O][Pt]2([NH][C@@H]3CCCC[C@H]3[NH]2)[O]C1=O [Oxaliplatin, reference compound]
decrease in caudal NCV vs. vehicle-treated mice [1]: 8±1.1% | reduction in IENFD in the footpads vs. vehicle-treated mice [1]: −31.7±3.5% | decrease in digital potential amplitude ([1]; not statistically significant): 13.5+/−6.4%

COc1ccc([C@H](C)NC(=O)N(O)C2CCN(C)CC2)c2ccccc12 [Reference 2]
2 hr brain concentration [2, 4]: 79.6 ng · g | 2 hr plasma concentration [2, 4]: 790.3 ng/mL | AUC (0-t) [2, 5]: 8412.7 ng·h/mL | CLz/F [2, 5]: 5 mL/min/kg | AUC (0-t) [2, 6]: 6139.8 ng·h/mL | CLz/F [2, 6]: 6.7 mL/min/kg | F [2, 6]: 73.0% | Kp at 2 h ([2]; rat, brain/plasma, iv): 0.1 | Cmax ([2]; rat, plasma, iv, 3 mg/kg): 1220 ng/mL | half-life ([2]; rat, plasma, iv, 3 mg/kg): 5.8 h | Cmax ([2]; rat, plasma, po, 3 mg/kg): 481 ng/mL | Vd/F ([2]; rat, plasma, po, 3 mg/kg): 3.3 L/kg | half-life ([2]; rat, plasma, po, 3 mg/kg): 6.1 h | tmax ([2]; rat, plasma, po, 3 mg/kg): 6 h | AUC (0-t) [3, 7]: 14810.5 ng·h/mL | CLz/F [3, 7]: 0.67 mL/min/kg | AUC (0-t) [3, 8]: 28288.2 ng·h/mL | CLz/F [3, 8]: 1 mL/min/kg | F [3, 8]: 95.5% | Cmax ([3]; dog, in vivo, iv, 1 mg/kg): 1520 ng/mL | half-life ([3]; dog, in vivo, iv, 1 mg/kg): 22.2 h | Cmax ([3]; dog, in vivo, po, 2 mg/kg): 2040 ng/mL | Vd/F ([3]; dog, in vivo, po, 2 mg/kg): 0.9 L/kg | half-life ([3]; dog, in vivo, po, 2 mg/kg): 11.8 h | tmax ([3]; dog, in vivo, po, 2 mg/kg): 0.67 h

COc1ccc(C(C)NC(=O)N(C)C2CCN(C)CC2(C)C)c(Cl)c1Cl (centres unmarked) [free base, 3-(1-(2,3-dichloro-4-methoxyphenyl)ethyl)-1-methyl-1-(1,3,3-trimethylpiperidin-4-yl)urea]
solubility (Water solubility testing): < 2000 µg/mL

From patent publication US12005056B2, “Centrally-active ghrelin agonist and medical uses thereof” (Helsinn Healthcare SA, priority 2018, dated 2024)
